# Data: patent US20250145633A1, “SUBSTITUTED FURANOPYRIMIDINE COMPOUNDS AS PDE1 INHIBITORS” (Dart NeuroScience, LLC, priority 2017, published 2025)
# Target: human PDE1B enzyme (Homo sapiens (Human), UniProt Q01064)
# Assay: IMAP TR-FRET PDE1B enzymatic assay
# Format: biochemical
# Settings: negative log of half-maximal molar inhibitory concentration, 200 nM FAM-cAMP, values given as bins; for IC50: read-out: PDE1b (pIC50) (converted)
# Outline: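 Full-length GST-tagged human PDE1B (250 pg/well) in IMAP BSA buffer with 10 U/ml calmodulin and 2.5 mM CaCl2; compound pre-incubated 5 min at room temperature, then 200 nM (final) FAM-cAMP for 30 min. IMAP binding reagent/Tb added, 1 h; TR-FRET 520/490 ratio read. IC50 from sigmoidal dose-response fit.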
Structure (SMILES),IC50 [nM],PDE1b (pIC50)
"Cc1oc2ncnc(NC3(C)CC3)c2c1C(=O)NC(C)C(C)C (stereo not drawn) [Example 170, 6-Methyl-N-(3-methylbutan-2-yl)-4-[(1-methylcyclopropyl)amino]furo[2,3-d]pyrimidine-5-carboxamide]",10 to 100,–
"CCOCCNC(=O)c1c(C)oc2ncnc(NC3(C)CC3)c12 [Example 171, N-(2-Rthoxyethyl)-6-methyl-4-[(1-methylcyclopropyl)amino]furo[2,3-d]pyrimidine-5-carboxamide]",100 to 1000,–
"Cc1oc2ncnc(NC3(C)CC3)c2c1C(=O)Nc1ccnn1C [Example 174, 6-Methyl-N-(1-methyl-1H-pyrazol-5-yl)-4-[(1-methylcyclopropyl)amino]furo[2,3-d]pyrimidine-5-carboxamide]",100 to 1000,–
"Cc1oc2ncnc(NC3(C)CC3)c2c1C(=O)NCC1CCCO1 (stereo not drawn) [Example 175, 6-Methyl-4-[(1-methylcyclopropyl)amino]-N-(oxolan-2-ylmethyl)furo[2,3-d]pyrimidine-5-carboxamide]",10 to 100,–
"Cc1oc2ncnc(NC3(C)CC3)c2c1C(=O)NCCOC(C)C [Example 176, 6-Methyl-4-[(1-methylcyclopropyl)amino]-N-[2-(propan-2-yloxy)ethyl]furo[2,3-d]pyrimidine-5-carboxamide]",10 to 100,–
"Cc1oc2ncnc(NC3(C)CC3)c2c1C(=O)NCc1ccccc1 [Example 177, N-Benzyl-6-methyl-4-[(1-methylcyclopropyl)amino]furo[2,3-d]pyrimidine-5-carboxamide]",10 to 100,–
"Cc1ccccc1NC(=O)c1c(C)oc2ncnc(NC3(C)CC3)c12 [Example 178, 6-Methyl-4-[(1-methylcyclopropyl)amino]-N-(2-methylphenyl)furo[2,3-d]pyrimidine-5-carboxamide]",10 to 100,–
"Cc1cccc(NC(=O)c2c(C)oc3ncnc(NC4(C)CC4)c23)c1 [Example 180, 6-Methyl-4-[(1-methylcyclopropyl)amino]-N-(3-methylphenyl)furo[2,3-d]pyrimidine-5-carboxamide]",10 to 100,–
"Cc1ncccc1NC(=O)c1c(C)oc2ncnc(NC3(C)CC3)c12 [Example 181, 6-Methyl-4-[(1-methylcyclopropyl)amino]-N-(2-methylpyridin-3-yl)furo[2,3-d]pyrimidine-5-carboxamide]",10 to 100,–
"Cc1oc2ncnc(NC3(C)CC3)c2c1C(=O)NCc1ccc(N2CCOCC2)cc1 [Example 184, 6-Methyl-4-[(1-methylcyclopropyl)amino]-N-{[4-(morpholin-4-yl)phenyl]methyl}furo[2,3-d]pyrimidine-5-carboxamide]",10 to 100,–
"COc1ccc(CNC(=O)c2c(C)oc3ncnc(NC4(C)CC4)c23)c(F)c1F [Example 185, N-[(2,3-Difluoro-4-methoxyphenyl)methyl]-6-methyl-4-[(1-methylcyclopropyl)amino]furo[2,3-d]pyrimidine-5-carboxamide]",–,>8
"COc1ccc(N2CCN(C(=O)c3c(C)oc4ncnc(NC5(C)CC5)c34)CC2)cc1 [Example 186, 5-[4-(4-Methoxyphenyl)piperazine-1-carbonyl]-6-methyl-N-(1-methylcyclopropyl)furo[2,3-d]pyrimidin-4-amine]",10 to 100,–
"Cc1oc2ncnc(NC3(C)CC3)c2c1C(=O)NCCc1ccco1 [Example 188, N-[2-(Furan-2-yl)ethyl]-6-methyl-4-[(1-methylcyclopropyl)amino]furo[2,3-d]pyrimidine-5-carboxamide]",10 to 100,–
"Cc1oc2ncnc(NC3(C)CC3)c2c1C(=O)NCCn1ccnc1 [Example 189, N-[2-(1H-Imidazol-1-yl)ethyl]-6-methyl-4-[(1-methylcyclopropyl)amino]furo[2,3-d]pyrimidine-5-carboxamide]",100 to 1000,–
"Cc1oc2ncnc(NC3(C)CC3)c2c1C(=O)NCc1cccs1 [Example 190, 6-Methyl-4-[(1-methylcyclopropyl)amino]-N-(thiophen-2-ylmethyl)furo[2,3-d]pyrimidine-5-carboxamide]",10 to 100,–
"Cc1oc2ncnc(NC3(C)CC3)c2c1C(=O)NCc1ccsc1 [Example 191, 6-Methyl-4-[(1-methylcyclopropyl)amino]-N-(thiophen-3-ylmethyl)furo[2,3-d]pyrimidine-5-carboxamide]",10 to 100,–
"Cc1oc2ncnc(NC3(C)CC3)c2c1C(=O)NCC1CCCCC1 [Example 192, N-(Cyclohexylmethyl)-6-methyl-4-[(1-methylcyclopropyl)amino]furo[2,3-d]pyrimidine-5-carboxamide]",10 to 100,–
"Cc1oc2ncnc(NC3(C)CC3)c2c1C(=O)NC1CCN(C)CC1 [Example 193, 6-Methyl-4-[(1-methylcyclopropyl)amino]-N-(1-methylpiperidin-4-yl)furo[2,3-d]pyrimidine-5-carboxamide]",–,<6
"Cc1oc2ncnc(NC3(C)CC3)c2c1C(=O)NC(C)c1ccccc1 (stereo not drawn) [Example 194, 6-Methyl-4-[(1-methylcyclopropyl)amino]-N-(1-phenylethyl)furo[2,3-d]pyrimidine-5-carboxamide]",–,>8
"Cc1oc2ncnc(NC3(C)CC3)c2c1C(=O)NCCc1ccccc1 [Example 195, 6-Methyl-4-[(1-methylcyclopropyl)amino]-N-(2-phenylethyl)furo[2,3-d]pyrimidine-5-carboxamide]",10 to 100,–
"Cc1ccc(CNC(=O)c2c(C)oc3ncnc(NC4(C)CC4)c23)cc1 [Example 196, 6-Methyl-4-[(1-methylcyclopropyl)amino]-N-[(4-methylphenyl)methyl]furo[2,3-d]pyrimidine-5-carboxamide]",–,>8
"Cc1cccc(CNC(=O)c2c(C)oc3ncnc(NC4(C)CC4)c23)c1 [Example 198, 6-Methyl-4-[(1-methylcyclopropyl)amino]-N-[(3-methylphenyl)methyl]furo[2,3-d]pyrimidine-5-carboxamide]",10 to 100,–
"COc1cccc(CN(C)C(=O)c2c(C)oc3ncnc(NC4(C)CC4)c23)c1 [Example 203, N-[(3-Methoxyphenyl)methyl]-N,6-dimethyl-4-[(1-methylcyclopropyl)amino]furo[2,3-d]pyrimidine-5-carboxamide]",10 to 100,–
"Cc1oc2ncnc(NC3(C)CC3)c2c1C(=O)NCCc1cccc(Cl)c1 [Example 204, N-[2-(3-Chlorophenyl)ethyl]-6-methyl-4-[(1-methylcyclopropyl)amino]furo[2,3-d]pyrimidine-5-carboxamide]",10 to 100,–
"Cc1oc2ncnc(NC3(C)CC3)c2c1C(=O)NCCc1c[nH]c2ccc(F)cc12 [Example 207, N-[2-(5-Fluoro-1H-indol-3-yl)ethyl]-6-methyl-4-[(1-methylcyclopropyl)amino]furo[2,3-d]pyrimidine-5-carboxamide]",10 to 100,–
"Cc1oc2ncnc(NC3(C)CC3)c2c1C(=O)N1C[C@@H]2[C@H](C1)[C@H]2c1ccccc1 [Example 208, 6-Methyl-N-(1-methylcyclopropyl)-5-[(1R,5S,6S)-6-phenyl-azabicyclo[3.1.0]hexane-3-carbonyl]furo[2,3-d]pyrimidin-4-amine]",10 to 100,–
"COc1ccccc1[C@H]1[C@@H]2CN(C(=O)c3c(C)oc4ncnc(NC5(C)CC5)c34)C[C@@H]21 [Example 209, 5-[(1R,5S,6S)-6-(2-Methoxyphenyl)-3-azabicyclo[3.1.0]hexane-3-carbonyl]-6-methyl-N-(1-methylcyclopropyl)furo[2,3-d]pyrimidin-4-amine]",–,>8
